# Laboratory results as given in patent US10028931B2, “Synergistic compositions for treating microbial infections” (UNIVERSITY OF ROCHESTER, priority 2014, dated 2018).
# Read-outs that look alike come from different tables or passages of the source.
# What was measured:
# [1] = system: Staphylococcus aureus strain UAMS-1; assay: Antimicrobial susceptibility testing (MIC, broth microdilution); format: cell-based; conditions: S. aureus UAMS-1, Mueller Hinton broth, 37° C.
# Method: The RNase P inhibitors described herein were tested for antimicrobial activity toward Staphylococcus aureus strain UAMS-1. Individual wells of a 96-well microtiter plate were inoculated with ˜1×10^5 colony-forming units (CFU) of the indicated organism, containing two-fold increasing concentrations (from 0 to 256 μg mL^−1) of the indicated antibiotic or putative RnpA inhibitor, and incubated at 37° C. for 18 hours in Mueller Hinton broth. The MIC was defined as the lowest concentration of antibiotic in which there was no visible bacterial growth in the wells. Minimum bactericidal concentration testing was performed by enumerating the bacterial cells in each of the wells containing treatments at and above the MIC.
# [2] = target: T1, S. aureus RNase P (RnpA+rnpB) (Staphylococcus aureus, UniProt P0A0H5); assay: RNase P activity assay (precursor tRNA processing); format: biochemical; conditions: gel densitometry
# T1 sequence (P0A0H5 1-117): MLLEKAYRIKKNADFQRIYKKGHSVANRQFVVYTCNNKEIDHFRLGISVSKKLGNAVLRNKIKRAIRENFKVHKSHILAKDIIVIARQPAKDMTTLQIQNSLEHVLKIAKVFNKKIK
# Method: The RNase P inhibitors described herein were tested for activity toward RNase P. S. aureus RNase P activity assays were performed in low salt buffer (50 mM Tris-HCl pH 8.0, 5 mM MgCl2) or in high salt buffer (50 mM Tris-HCl pH 8.0, 100 mM MgCl2, 800 mM NH4Cl). For all reactions, ptRNATyr, tRNATyr, or rnpB RNA species were first denatured by heating to 95° C. for 3 minutes, and then slowly cooling the mixtures to room temperature. RNase P was reconstituted by mixing an equal molar ratio of RnpB and RnpA for 15 min at 37° C. Precursor tRNA processing reactions (20 μL) were performed by mixing 1.25 pmol RNase P (RnpA+rnpB), RnpA, or rnpB with an equal volume of 2× low salt buffer or 2× high salt buffer and 10 pmol ptRNATyr. Mixtures were incubated for 15 min at 37° C. Reactions were stopped by adding 20 μL 2×RNA loading dye (95% formamide, 0.025% SDS, 0.025% bromophenol blue, 0.025% xylene cyanol FF, 0.5 mM EDTA), and 30 μL of each sample was electrophoresed in a 7 M urea/8% polyacrylamide gel and was then stained with ethidium bromide (0.5 μg/ml). Where indicated, reactions were repeated in the presence of the indicated amount of putative RnpA inhibitors or dimethyl sulfoxide (DMSO). A FluorChem 5500 imaging system was used to visualize the RNA, and the relative abundance of the mature tRNATyr band in the positive control (RNase P+DMSO) or in samples containing test compounds was measured using Image J densitometry software (NIH). The percent RNase P activity was then calculated using the following calculation: (test compound tRNATyr signal/positive control tRNATyr signal)*100.
# [3] = target: T2, RnpA (Staphylococcus aureus, UniProt P0A0H5); assay: RnpA mRNA degradation activity assay; format: biochemical
# T2 sequence (P0A0H5 1-117): T1 sequence (P0A0H5 1-117)
# Method: The RNase P inhibitors described herein were tested for activity toward RnpA mRNA degradation activity. Either 1 μg of total S. aureus RNA or 1 pmol of in vitro synthesized spa mRNA was incubated with 20 pmol RnpA at 37° C. for 15 to 30 min in a reaction buffer (50 mM Tris-HCl pH 8.0, 2 mM NaCl, 2 mM MgCl2) in the absence or presence of the indicated compound. Reactions were stopped by adding an equal volume of 2×RNA loading dye (95% formamide, 0.025% SDS, 0.025% bromophenol blue, 0.025% xylene cyanol FF, 0.5 mM EDTA), run on a denaturing 1.0% agarose-0.66 M formaldehyde gel and stained with ethidium bromide. RNA substrates and corresponding degradation products were visualized using a FluorChem 5500 system (Alpha Innotech; San Leandro, Calif.). The inhibitory effects of the test compounds were measured using Image J densitometry software (National Institutes of Health; Bethesda, Md.) to quantify the signal intensity of the RNA band(s) in the negative control (RNA alone), positive control (RnpA+RNA+DMSO), and experimental samples (RnpA+RNA+test compound). The percent enzyme inhibition of test compounds was calculated using the following equation: Percent inhibition=[(experimental signal-positive control)/(negative control signal-positive control signal)]*100.
# [4] = Staphylococcus aureus, UAMS1, 18 h, read-out: MIC
# [5] = ptRNATyr processing, read-out: RNase P IC50
# [6] = RnpA mRNA degradation, gel densitometry, read-out: RnpA IC50
# [7] = RNase P IC50, ptRNATyr processing
Compound,"MIC [1, 4] [µg/mL]","IC50 [2, 5] [µM]","IC50 [3, 6] [µM]",MIC ([1]; 18 hours) [µg/mL],"MIC ([1]; Staphylococcus aureus, UAMS1, 18 hours, read-out: MIC) [µg/mL]","IC50 [2, 7] [µM]",IC50 [3] [µM]
CC(C)c1ccc(OCC(=O)NNC(=O)c2cc3ccccc3n2C)cc1 [MC-190057],> 256,70,> 500,,,,
CC(C)c1ccc(OCC(=O)NNC(=O)c2cccs2)cc1 [MC-190035],> 256,> 500,> 500,,,,
CC(C)c1ccc(CNc2c(NCc3ccco3)c(=O)c2=O)cc1 [MC-190091],128,,25,,,,
Cc1ccc(CNc2c(NCCc3ccc(C(C)C)cc3)c(=O)c2=O)o1 [MC-190085],> 128,,,,,,
CC(C)c1ccc(OCC(=O)NNC(=S)NC(=O)c2ccoc2)cc1 [MC-190098],16,150,,,,,
CC(C)c1ccc(OCC(=O)NNC(=S)NC(=O)Cc2ccco2)cc1 [MC-190084],16,,,,,,
CC(C)c1ccc(OCC(=O)NNC(=O)Cc2ccco2)cc1 [MC-190038],> 256,> 500,> 500,,,,
CC(C)c1ccc(OCC(=O)NNC(=O)c2ccco2)cc1 [MC-190034],> 256,> 500,> 500,,,,
Cc1ccoc1C(=O)NC(=S)NNC(=O)COc1ccc(C(C)C)cc1 [MC-190043],32,150,20,,,,
CC(C)c1ccc(CCNc2c(NCc3nc4ccccc4[nH]3)c(=O)c2=O)cc1 [MC-190087],> 128,,,,,,
CC(C)c1ccc(CNc2c(NCCc3ccco3)c(=O)c2=O)cc1 [MC-190092],256,250,250,,,,
COc1ccccc1C(=O)NNC(=S)NC(=O)c1ccco1 [ST5525332],,,,,8,> 500,> 500
COc1ccc2cc(C(=O)NNC(=O)COc3ccc(C(C)C)cc3)[nH]c2c1 [MC-190059],> 256,80,150,,,,
O=C(CCc1ccccc1)NNC(=S)NC(=O)c1ccco1 [MC-190080],> 128,,,,,,
CC(C)c1ccc(CCNc2c(NCc3ccco3)c(=O)c2=O)cc1 [MC-190083],> 128,,,,,,
COc1ccc(OCC(=O)NNC(=S)NC(=O)c2ccco2)cc1 [MC-190070],64,> 500,> 500,,,,
O=C(COc1ccc(Cl)cc1Cl)NNC(=S)NC(=O)c1ccco1 [ST5682846],4,,> 500,,,80,
CC(C)c1ccc(CCNc2c(NCCc3ccco3)c(=O)c2=O)cc1 [MC-190090],256,,50,,,,
CC(C)c1ccc(OCC(=O)NNC(=S)NC(=O)c2cnco2)cc1 [MC-190039],64,,,,,,> 500
CC(C)c1ccc(OCC(=O)NNC(=S)NC(=O)c2cnc3ccccc3c2)cc1 [MC-190082],> 128,,,,,,
CC(C)c1ccc(CCNc2c(NCc3ccccn3)c(=O)c2=O)cc1 [MC-190086],> 128,,,,,,
CC(C)c1ccc(CCNc2c(NCc3cc4ccccc4o3)c(=O)c2=O)cc1 [MC-190088],> 128,,,,,,

# More lines, main results first:
"MIC [1, 4] [µg/mL]","IC50 [2, 5] [µM]","IC50 [3, 6] [µM]",MIC ([1]; 18 hours) [µg/mL],Compound,"MIC ([1]; Staphylococcus aureus, UAMS1, 18 hours, read-out: MIC) [µg/mL]","IC50 [2, 7] [µM]",IC50 [3] [µM]
64,280,> 500,,CCOc1ccc(C(=O)NC(=S)NNC(=O)COc2ccc(C(C)CC)cc2)cc1 (stereo not shown) [ST5528171],,,
16,75,90,,O=C(/C=C/c1ccccc1)NC(=S)NNC(=O)c1ccco1 [ST5254083],,,
> 128,> 500,,,COCCOC(=O)CCC(=O)NC(=S)NNC(=O)COc1ccc(C(C)C)cc1 [ST5528839],,,
> 128,> 500,> 500,,COc1ccccc1OCC(=O)NNC(=S)NC(=O)c1ccco1 [ST5682778],,,
> 128,> 500,,,O=C(NNC(=S)NC(=O)c1ccco1)c1ccc(NC(=O)c2ccccc2)cc1 [ST5524510],,,
> 128,> 500,> 500,,O=C(NNC(=S)NC(=O)c1ccco1)c1ccncc1 [ST4145527],,,
> 128,> 500,> 500,,O=C(NC(=S)NNC(=O)c1ccco1)c1ccc(F)c(F)c1 [ST5704832],,,
> 128,> 500,70,,CC(C)CNC(=S)NNC(=O)c1ccc(COc2ccc(C(C)(C)C)cc2)o1 [ST5607017],,,
> 128,145,> 500,,CC(C)C(=O)Nc1ccc(C(=O)NNC(=S)NC(=O)c2ccco2)cc1 [ST5525955],,,
> 128,> 500,> 500,,CCc1ccc(OCc2ccc(C(=O)NNC(=S)NCC(C)C)o2)cc1 [ST5607293],,,
> 128,> 500,150,,Cc1ccc(OCc2ccc(C(=O)NNC(=S)NCC(C)C)o2)c(C)c1 [ST5607269],,,
16,> 500,> 500,,O=C(NC(=S)NNC(=O)c1ccc(O)cc1O)c1ccco1 [ST5640720],,,
64,180,> 500,,COc1ccc(C(=O)NC(=S)NNC(=O)c2ccco2)cc1 [ST5254089],,,
32,> 500,> 500,,O=C(NNC(=S)NC(=O)c1ccco1)c1cnccn1 [ST5641784],,,
32,70,300,,CC(C)(C)c1ccc(C(=O)Nc2ccc(C(=O)NNC(=S)NC(=O)c3ccco3)cc2)cc1 [ST5524997],,,
16,155,,,Cc1ccc(OCC(=O)NNC(=S)NC(=O)COc2ccccc2)cc1 [ST5521633],,,
64,430,> 500,,Cc1ccccc1C(=O)NNC(=S)NC(=O)c1ccco1 [ST5638722],,,
128,> 500,> 500,,COc1cccc(OC)c1C(=O)NC(=S)NNC(=O)c1ccco1 [ST5638707],,,
,125,275,,CCC(C)c1ccc(OCC(=O)NNC(=S)NC(=O)C2CCCCC2)cc1 (stereo not shown) [ST5525281],,,
> 128,> 500,,,O=C(NC(=S)NNC(=O)c1ccco1)c1cccnc1 [ST5254088],,,
32,80,220,,Cc1ccccc1OCC(=O)NNC(=S)NC(=O)/C=C/c1ccco1 [ST5524973],,,
16,> 500,> 500,,COc1ccc(C(=O)NNC(=S)NC(=O)c2ccco2)cc1 [ST5254069],,,
32,425,> 500,,COc1ccc(OCC(=O)NNC(=S)NC(=O)c2ccc(Br)o2)cc1 [ST5523216],,,
,> 500,> 500,16,O=C(NC(=S)NNC(=O)c1ccccc1O)c1ccco1 [ST5703881],,,
64,> 500,> 500,,CC(C)COc1ccc(C(=O)NNC(=S)NC(=O)c2ccco2)cc1 [ST5529685],,,
128,> 500,> 500,,O=C(NNC(=S)NC(=O)c1ccco1)c1cccnc1 [ST5254078],,,
64,> 500,40,,CCC(C)c1ccc(OCC(=O)NNC(=S)NC(=O)c2ccc(-c3ccccc3)cc2)cc1 (stereo not shown) [ST5525289],,,
> 128,> 500,,,O=C(Cc1ccccc1)NNC(=S)NC(=O)c1ccco1 [ST5682126],,,
